Results published in patent publication US8513430B2, “Substituted thiazol-2-ylamine derivatives, pharmaceutical compositions, and methods of use as 11-beta HSD1 modulators” (High Point Pharmaceuticals, LLC, priority 2010, dated 2013).

target: T1, 11βHSD1 (Homo sapiens, UniProt P28845); assay: in vitro 11β-HSD assay (human microsomes, CISBIO cortisol kit); type: biochemical; details: 160 nM cortisone, 200 μM NADPH, 2 h at 37° C., pH 6.0
T1 construct: from tissue
Procedure: The following assay methods were used to identify and evaluate compounds of Formula (I) that are effective in modulating 11βHSD1.
CISBIO Cortisol kit #62CO2PEB
Assay Buffer: (water based) used for Enzyme, Compounds and Microsomes: 20 mM Tris, 5 mM EDTA, and pH 6.0.
Enzyme Buffer: 333 μM NADPH (FAC 200 μM) and 266 nM Cortisone (FAC 160 nM).
1) Test compounds (10 mM stock in 100% DMSO) were diluted in Assay Buffer (see below) with 1% DMSO FAC and placed into the 96-well plate. Test compounds were typically tested over 10 concentrations (30 μM-0.3 nM).
2) 30 μL Enzyme Buffer, 10 μL Test Compound, 10 μL human microsomes were added to the test compounds and mixed gently by tapping the plate.
3) The plates were incubated for 2 h at 37° C.
4) 25 μL anti Cortisol-K and 25 μL Cortisol d2 were added to the plate and mixed gently by tapping the plate.
5) The plates were incubated at room temperature for 2 h.
6) The plates were read on an Envision model 2120 Perkin-Elmer using emission filters #205 and #217.

T1 sequence (P28845 whole entry): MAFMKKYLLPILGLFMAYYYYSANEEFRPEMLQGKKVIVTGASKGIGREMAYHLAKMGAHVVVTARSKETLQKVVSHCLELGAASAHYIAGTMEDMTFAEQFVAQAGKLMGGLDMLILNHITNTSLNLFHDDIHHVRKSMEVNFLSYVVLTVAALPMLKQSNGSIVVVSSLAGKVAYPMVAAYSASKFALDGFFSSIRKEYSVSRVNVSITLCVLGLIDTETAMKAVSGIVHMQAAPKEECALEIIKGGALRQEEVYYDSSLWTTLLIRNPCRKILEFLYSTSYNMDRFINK

| Compound | EC50 [nM] |
| --- | --- |
| O=C(N[C@H]1C2CC3CC1C[C@](O)(C3)C2)c1csc(Nc2ccc(Cl)cn2)n1 [Example 2, 2-(5-Chloro-pyridin-2-ylamino)-thiazole-4-carboxylic acid [(E)-5-hydroxyadamantan-2-yl]-amide] | 31 |
| O=C(N[C@H]1C2CC3CC1C[C@](O)(C3)C2)c1csc(Nc2cccnc2)n1 [Example 4, 2-(Pyridin-3-ylamino)-thiazole-4-carboxylic acid [(E)-5-hydroxy-adamantan-2-yl]-amide] | 26 |
| O=C(N[C@H]1C2CC3CC1C[C@](O)(C3)C2)c1csc(Nc2ccccn2)n1 [Example 5, 2-(Pyridin-2-ylamino)-thiazole-4-carboxylic acid [(E)-5-hydroxy-adamantan-2-yl]-amide] | 4000 |
| O=C(N[C@H]1C2CC3CC1C[C@](O)(C3)C2)c1csc(NCCc2ccccn2)n1 [Example 7, 2-(2-Pyridin-2-yl-ethylamino)-thiazole-4-carboxylic acid [(E)-5-hydroxy-adamantan-2-yl]-amide] | 127 |
| O=C(N[C@H]1C2CC3CC1C[C@](O)(C3)C2)c1csc(Nc2ccc(C(F)(F)F)cc2)n1 [Example 8, 2-(4-Trifluoromethyl-phenylamino)-thiazole-4-carboxylic acid [(E)-5-hydroxy-adamantan-2-yl]-amide] | 13 |
| COc1ccc(Nc2nc(C(=O)N[C@H]3C4CC5CC3C[C@](O)(C5)C4)cs2)cc1 [Example 9, 2-(4-Methoxy-phenylamino)-thiazole-4-carboxylic acid [(E)-5-hydroxy-adamantan-2-yl]-amide] | 2 |
| O=C(N[C@H]1C2CC3CC1C[C@](O)(C3)C2)c1csc(Nc2ccc(Cl)c(Cl)c2)n1 [Example 12, 2-(3,4-Dichloro-phenylamino)-thiazole-4-carboxylic acid [(E)-5-hydroxy-adamantan-2-yl]-amide] | 112 |
| O=C(N[C@H]1C2CC3CC1C[C@](O)(C3)C2)c1csc(NCc2cccnc2)n1 [Example 13, 2-[(Pyridin-3-ylmethyl)-amino]-thiazole-4-carboxylic acid [(E)-5-hydroxy-adamantan-2-yl]-amide] | 39 |
| O=C(N[C@H]1C2CC3CC1C[C@](O)(C3)C2)c1csc(NCc2ccccc2)n1 [Example 14, 2-Benzylamino-thiazole-4-carboxylic acid [(E)-5-hydroxy-adamantan-2-yl]-amide] | 78 |
| Cc1nc(NCCc2ccccc2)sc1C(=O)N[C@H]1C2CC3CC1C[C@](O)(C3)C2 [Example 18, 4-Methyl-2-phenethylamino-thiazole-5-carboxylic acid [(E)-5-hydroxy-adamantan-2-yl]-amide] | 48 |

Now from value to molecule:

| EC50 [nM] | Compound |
| --- | --- |
| 360 | O=C(N[C@H]1C2CC3CC1C[C@](O)(C3)C2)c1csc(NCc2ccco2)n1 [Example 1, 2-[(Furan-2-ylmethyl)-amino]-thiazole-4-carboxylic acid [(E)-5-hydroxy-adamantan-2-yl]-amide] |
| 110 | O=C(N[C@H]1C2CC3CC1C[C@](O)(C3)C2)c1csc(Nc2ccncc2)n1 [Example 3, 2-(Pyridin-4-ylamino)-thiazole-4-carboxylic acid [(E)-5-hydroxy-adamantan-2-yl]-amide] |
| 11 | O=C(N[C@H]1C2CC3CC1C[C@](O)(C3)C2)c1csc(NCCc2ccccc2)n1 [Example 6, 2-(2-Phenyl-ethylamino)-thiazole-4-carboxylic acid [(E)-5-hydroxy-adamantan-2-yl]-amide] |
| 8.7 | O=C(N[C@H]1C2CC3CC1C[C@](O)(C3)C2)c1csc(Nc2ccc(Cl)cc2)n1 [Example 10, 2-(4-Chloro-phenylamino)-thiazole-4-carboxylic acid [(E)-5-hydroxy-adamantan-2-yl]-amide] |
| 2.7 | O=C(N[C@H]1C2CC3CC1C[C@](O)(C3)C2)c1csc(Nc2ccc(F)cc2)n1 [Example 11, 2-(4-Fluoro-phenylamino)-thiazole-4-carboxylic acid [(E)-5-hydroxy-adamantan-2-yl]-amide] |
| 165 | O=C(N[C@H]1C2CC3CC1C[C@](O)(C3)C2)c1csc(NCCc2cccnc2)n1 [Example 15, 2-(2-Pyridin-3-yl-ethylamino)-thiazole-4-carboxylic acid [(E)-5-hydroxy-adamantan-2-yl]-amide] |
| 369 | O=C(N[C@H]1C2CC3CC1C[C@](O)(C3)C2)c1csc(NCCc2ccncc2)n1 [Example 16, 2-(2-Pyridin-4-yl-ethylamino)-thiazole-4-carboxylic acid [(E)-5-hydroxy-adamantan-2-yl]-amide] |
| 31 | O=C(N[C@H]1C2CC3CC1C[C@](O)(C3)C2)c1cnc(Nc2ccc(Cl)cn2)s1 [Example 17, 2-(5-Chloro-pyridin-2-ylamino)-thiazole-5-carboxylic acid [(E)-5-hydroxy-adamantan-2-yl]-amide] |

target: T1, 11βHSD1; assay: Human adipocytes cell based assay (cortisone to cortisol, ELISA); details: human omental adipocytes, 300 nM cortisone, 24 hours at 37° C.
Procedure: Human Adipocytes Cell Based Assay
Cells were ordered from ZenBio, RTP, NC (www.zen-bio.com (OA-1096-3)) pre-plated (96 well). Cell Media was supplied by ZenBio (Omental Adipocyte Medium #OM-AM).
Test compounds were prepared at 10 concentrations (10 μM-0.1 nM). Dilutions were made up in Cell Media. Cell Media from the plate is aspirated and 97 μL was added to the wells.
The plates were incubated for 15 minutes (37° C.).
3 μL of […] cortisone (Sigma #C2755) (300 nM FAC) was added, for a total well volume of 100 μL.
The plates were incubated for 24 hours (37° C.).
The media was harvested from cells.
The samples were then assayed using Cortisol ELISA Kits (R & D Systems #SKGE008). Samples were diluted by a factor of 5. Specific instructions were included in the kit to quantify presence of cortisol in samples through an ELISA assay.
The plates were read on a Spectramax at 450 nm OD.

| IC50 [nM] | Compound |
| --- | --- |
| 19 | O=C(N[C@H]1C2CC3CC1C[C@](O)(C3)C2)c1csc(Nc2ccc(Cl)cn2)n1 [Example 2, 2-(5-Chloro-pyridin-2-ylamino)-thiazole-4-carboxylic acid [(E)-5-hydroxyadamantan-2-yl]-amide] |
